From patent US9113629B2, “4-amino-6-(4-substituted-phenyl)-picolinates and 6-amino-2-(4-substituted-phenyl)-pyrimidine-4-carboxylates and their use as herbicides” (DOW AGROSCIENCES LLC, priority 2013, dated 2015)

System: KCHSC: kochia (Kochia scoparia)
Assay: Post-emergent Test III, herbicidal activity in wheat and barley
Assay type: in vivo
Details: Bassia scoparia, post-emergence, 504 h; 35 g ai/ha; read-out: Visual Growth Reduction (%) 21 Days After Application KCHSC
Procedure, shortened: (§1)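 GR20, GR50, GR80 and GR90 come from probit analysis of visual injury scores (0 = none, 100 = complete kill) taken 21 d after treatment. Foliar application was by track sprayer delivering 187 L/ha at five rates, from high down to 1/16×, onto greenhouse plants at the 2–3 leaf stage, with solvent-blank controls.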
Compound `COC(=O)c1nc(-c2ccc(Br)cc2)c(F)c(N)c1Cl` [Compound 138, Methyl 4-amino-6-(4-bromophenyl)-3-chloro-5-fluoropicolinate] has a pest or weed control at 35 g/ha of 95 to 100%.

Same assay, conditions: Bassia scoparia, post-emergence, 504 h; 70 g ai/ha; read-out: Visual Growth Reduction (%) 21 Days After Application KCHSC
`COC(=O)c1nc(-c2ccc(Br)cc2)c(F)c(N)c1Cl` [Compound 138, Methyl 4-amino-6-(4-bromophenyl)-3-chloro-5-fluoropicolinate] showed a pest or weed control at 70 g/ha of 95 to 100%.

Same assay, conditions: Bassia scoparia, post-emergence, 504 h; 140 g ai/ha; read-out: Visual Growth Reduction (%) 21 Days After Application KCHSC
For `COC(=O)c1nc(-c2ccc(Br)cc2)c(F)c(N)c1Cl` [Compound 138, Methyl 4-amino-6-(4-bromophenyl)-3-chloro-5-fluoropicolinate], the pest or weed control at 140 g/ha was 95 to 100%.

Same assay, conditions: probit analysis, dose for growth reduction of 50 percent, 21 days after application
With `COC(=O)c1nc(-c2ccc(Br)cc2)c(F)c(N)c1Cl` [Compound 138, Methyl 4-amino-6-(4-bromophenyl)-3-chloro-5-fluoropicolinate] the “GR50 KCHSC” value was 1 g ai/ha.

Same assay, conditions: probit analysis, dose for growth reduction of 80 percent, 21 days after application
In the case of `COC(=O)c1nc(-c2ccc(Br)cc2)c(F)c(N)c1Cl` [Compound 138, Methyl 4-amino-6-(4-bromophenyl)-3-chloro-5-fluoropicolinate], the “GR80 KCHSC” value is reported as 4 g ai/ha.

System: TRZSS: wheat, including spring and winter (Triticum aestivum)
Assay: as above
Assay type: in vivo
Details: Triticum aestivum, post-emergence, 504 h; 35 g ai/ha; read-out: Visual Growth Reduction (%) 21 Days After Application TRZSS
Procedure, shortened: as §1
`COC(=O)c1nc(-c2ccc(Br)cc2)c(F)c(N)c1Cl` [Compound 138, Methyl 4-amino-6-(4-bromophenyl)-3-chloro-5-fluoropicolinate] showed a pest or weed control at 35 g/ha of 85 to 94%.

Same assay, conditions: Triticum aestivum, post-emergence, 504 h; 70 g ai/ha; read-out: Visual Growth Reduction (%) 21 Days After Application TRZSS
In the case of `COC(=O)c1nc(-c2ccc(Br)cc2)c(F)c(N)c1Cl` [Compound 138, Methyl 4-amino-6-(4-bromophenyl)-3-chloro-5-fluoropicolinate], the pest or weed control at 70 g/ha is reported as 85 to 94%.

Same assay, conditions: Triticum aestivum, post-emergence, 504 h; 140 g ai/ha; read-out: Visual Growth Reduction (%) 21 Days After Application TRZSS
`COC(=O)c1nc(-c2ccc(Br)cc2)c(F)c(N)c1Cl` [Compound 138, Methyl 4-amino-6-(4-bromophenyl)-3-chloro-5-fluoropicolinate] gave a pest or weed control at 140 g/ha of 85 to 94%.

Same assay, conditions: probit analysis, dose for growth reduction of 20 percent, 21 days after application; crop
In the case of `COC(=O)c1nc(-c2ccc(Br)cc2)c(F)c(N)c1Cl` [Compound 138, Methyl 4-amino-6-(4-bromophenyl)-3-chloro-5-fluoropicolinate], the “GR20 TRZSS” value is reported as 1 g ai/ha.

System: HORSS: barley, including spring and winter (Hordeum vulgare)
Assay: as above
Assay type: in vivo
Details: Hordeum vulgare, post-emergence, 504 h; 35 g ai/ha; read-out: Visual Growth Reduction (%) 21 Days After Application HORSS
Procedure, shortened: as §1
`COC(=O)c1nc(-c2ccc(Br)cc2)c(F)c(N)c1Cl` [Compound 138, Methyl 4-amino-6-(4-bromophenyl)-3-chloro-5-fluoropicolinate] gave a pest or weed control at 35 g/ha of 85 to 94%.

Same assay, conditions: Hordeum vulgare, post-emergence, 504 h; 70 g ai/ha; read-out: Visual Growth Reduction (%) 21 Days After Application HORSS
`COC(=O)c1nc(-c2ccc(Br)cc2)c(F)c(N)c1Cl` [Compound 138, Methyl 4-amino-6-(4-bromophenyl)-3-chloro-5-fluoropicolinate] gave a pest or weed control at 70 g/ha of 85 to 94%.

Same assay, conditions: Hordeum vulgare, post-emergence, 504 h; 140 g ai/ha; read-out: Visual Growth Reduction (%) 21 Days After Application HORSS
Compound `COC(=O)c1nc(-c2ccc(Br)cc2)c(F)c(N)c1Cl` [Compound 138, Methyl 4-amino-6-(4-bromophenyl)-3-chloro-5-fluoropicolinate] has a pest or weed control at 140 g/ha of 95 to 100%.

Same assay, conditions: probit analysis, dose for growth reduction of 20 percent, 21 days after application; crop
In the case of `COC(=O)c1nc(-c2ccc(Br)cc2)c(F)c(N)c1Cl` [Compound 138, Methyl 4-amino-6-(4-bromophenyl)-3-chloro-5-fluoropicolinate], the “GR20 HORSS” value is reported as 1 g ai/ha.

System: APESV: bentgrass (Apera spica-venti)
Assay: as above
Assay type: in vivo
Details: Apera spica-venti, post-emergence, 504 h; 35 g ai/ha; read-out: Visual Growth Reduction (%) 21 Days After Application APESV
Procedure, shortened: as §1
`COC(=O)c1nc(-c2ccc(Br)cc2)c(F)c(N)c1Cl` [Compound 138, Methyl 4-amino-6-(4-bromophenyl)-3-chloro-5-fluoropicolinate] showed a pest or weed control at 35 g/ha of 85 to 94%.

Same assay, conditions: Apera spica-venti, post-emergence, 504 h; 70 g ai/ha; read-out: Visual Growth Reduction (%) 21 Days After Application APESV
Compound `COC(=O)c1nc(-c2ccc(Br)cc2)c(F)c(N)c1Cl` [Compound 138, Methyl 4-amino-6-(4-bromophenyl)-3-chloro-5-fluoropicolinate] has a pest or weed control at 70 g/ha of 85 to 94%.

Same assay, conditions: Apera spica-venti, post-emergence, 504 h; 140 g ai/ha; read-out: Visual Growth Reduction (%) 21 Days After Application APESV
In the case of `COC(=O)c1nc(-c2ccc(Br)cc2)c(F)c(N)c1Cl` [Compound 138, Methyl 4-amino-6-(4-bromophenyl)-3-chloro-5-fluoropicolinate], the pest or weed control at 140 g/ha is reported as 95 to 100%.

Same assay, conditions: probit analysis, dose for growth reduction of 50 percent, 21 days after application
In the case of `COC(=O)c1nc(-c2ccc(Br)cc2)c(F)c(N)c1Cl` [Compound 138, Methyl 4-amino-6-(4-bromophenyl)-3-chloro-5-fluoropicolinate], the “GR50 APESV” value is reported as 2 g ai/ha.

Same assay, conditions: probit analysis, dose for growth reduction of 80 percent, 21 days after application
With `COC(=O)c1nc(-c2ccc(Br)cc2)c(F)c(N)c1Cl` [Compound 138, Methyl 4-amino-6-(4-bromophenyl)-3-chloro-5-fluoropicolinate] the “GR80 APESV” value was 12 g ai/ha.

System: MATSS: scented mayweed (Matricaria chamomilla), pineappleweed (Matricaria matricarioides)
Assay: as above
Assay type: in vivo
Details: Matricaria chamomilla, post-emergence, 504 h; 35 g ai/ha; read-out: Visual Growth Reduction (%) 21 Days After Application MATSS
Procedure, shortened: as §1
Compound `COC(=O)c1nc(-c2ccc(Br)cc2)c(F)c(N)c1Cl` [Compound 138, Methyl 4-amino-6-(4-bromophenyl)-3-chloro-5-fluoropicolinate] has a pest or weed control at 35 g/ha of 60 to 74%.

Same assay, conditions: Matricaria chamomilla, post-emergence, 504 h; 70 g ai/ha; read-out: Visual Growth Reduction (%) 21 Days After Application MATSS
Compound `COC(=O)c1nc(-c2ccc(Br)cc2)c(F)c(N)c1Cl` [Compound 138, Methyl 4-amino-6-(4-bromophenyl)-3-chloro-5-fluoropicolinate] has a pest or weed control at 70 g/ha of 85 to 94%.

Same assay, conditions: Matricaria chamomilla, post-emergence, 504 h; 140 g ai/ha; read-out: Visual Growth Reduction (%) 21 Days After Application MATSS
Compound `COC(=O)c1nc(-c2ccc(Br)cc2)c(F)c(N)c1Cl` [Compound 138, Methyl 4-amino-6-(4-bromophenyl)-3-chloro-5-fluoropicolinate] has a pest or weed control at 140 g/ha of 85 to 94%.

Same assay, conditions: probit analysis, dose for growth reduction of 50 percent, 21 days after application
With `COC(=O)c1nc(-c2ccc(Br)cc2)c(F)c(N)c1Cl` [Compound 138, Methyl 4-amino-6-(4-bromophenyl)-3-chloro-5-fluoropicolinate] the “GR50 MATSS” value was 16 g ai/ha.

Same assay, conditions: probit analysis, dose for growth reduction of 80 percent, 21 days after application
For `COC(=O)c1nc(-c2ccc(Br)cc2)c(F)c(N)c1Cl` [Compound 138, Methyl 4-amino-6-(4-bromophenyl)-3-chloro-5-fluoropicolinate], the “GR80 MATSS” value was 51 g ai/ha.

System: SETVI: green foxtail (Setaria viridis)
Assay: as above
Assay type: in vivo
Details: Setaria viridis, post-emergence, 504 h; 35 g ai/ha; read-out: Visual Growth Reduction (%) 21 Days After Application SETVI
Procedure, shortened: as §1
Work on `COC(=O)c1nc(-c2ccc(Br)cc2)c(F)c(N)c1Cl` [Compound 138, Methyl 4-amino-6-(4-bromophenyl)-3-chloro-5-fluoropicolinate] yielded a pest or weed control at 35 g/ha of 85 to 94%.

Same assay, conditions: Setaria viridis, post-emergence, 504 h; 70 g ai/ha; read-out: Visual Growth Reduction (%) 21 Days After Application SETVI
With `COC(=O)c1nc(-c2ccc(Br)cc2)c(F)c(N)c1Cl` [Compound 138, Methyl 4-amino-6-(4-bromophenyl)-3-chloro-5-fluoropicolinate] the pest or weed control at 70 g/ha was 85 to 94%.

Same assay, conditions: Setaria viridis, post-emergence, 504 h; 140 g ai/ha; read-out: Visual Growth Reduction (%) 21 Days After Application SETVI
Compound `COC(=O)c1nc(-c2ccc(Br)cc2)c(F)c(N)c1Cl` [Compound 138, Methyl 4-amino-6-(4-bromophenyl)-3-chloro-5-fluoropicolinate] has a pest or weed control at 140 g/ha of 95 to 100%.

Same assay, conditions: probit analysis, dose for growth reduction of 50 percent, 21 days after application
For `COC(=O)c1nc(-c2ccc(Br)cc2)c(F)c(N)c1Cl` [Compound 138, Methyl 4-amino-6-(4-bromophenyl)-3-chloro-5-fluoropicolinate], the “GR50 SETVI” value was 8 g ai/ha.

Same assay, conditions: probit analysis, dose for growth reduction of 80 percent, 21 days after application
With `COC(=O)c1nc(-c2ccc(Br)cc2)c(F)c(N)c1Cl` [Compound 138, Methyl 4-amino-6-(4-bromophenyl)-3-chloro-5-fluoropicolinate] the “GR80 SETVI” value was 32 g ai/ha.

System: LOLSS: ryegrass including, Italian ryegrass (Lolium multiflorum), rigid ryegrass (Lolium rigidum), annual ryegrass (Lolium multiflorum subsp. Gaudini)
Assay: as above
Assay type: in vivo
Details: probit analysis, dose for growth reduction of 50 percent, 21 days after application
Procedure, shortened: as §1
For `COC(=O)c1nc(-c2ccc(Br)cc2)c(F)c(N)c1Cl` [Compound 138, Methyl 4-amino-6-(4-bromophenyl)-3-chloro-5-fluoropicolinate], the “GR50 LOLSS” value was 20 g ai/ha.

Same assay, conditions: probit analysis, dose for growth reduction of 80 percent, 21 days after application
For `COC(=O)c1nc(-c2ccc(Br)cc2)c(F)c(N)c1Cl` [Compound 138, Methyl 4-amino-6-(4-bromophenyl)-3-chloro-5-fluoropicolinate], the “GR80 LOLSS” value was 66 g ai/ha.

System: not listed separately
Assay: as above
Assay type: in vivo, Lolium multiflorum, Lolium rigidum
Details: Lolium multiflorum, post-emergence, 504 h; 35 g ai/ha; read-out: Visual Growth Reduction (%) 21 Days After Application LOLSS
Procedure, shortened: as §1
`COC(=O)c1nc(-c2ccc(Br)cc2)c(F)c(N)c1Cl` [Compound 138, Methyl 4-amino-6-(4-bromophenyl)-3-chloro-5-fluoropicolinate] gave a pest or weed control at 35 g/ha of 60 to 74%.

Same assay, conditions: Lolium multiflorum, post-emergence, 504 h; 70 g ai/ha; read-out: Visual Growth Reduction (%) 21 Days After Application LOLSS
`COC(=O)c1nc(-c2ccc(Br)cc2)c(F)c(N)c1Cl` [Compound 138, Methyl 4-amino-6-(4-bromophenyl)-3-chloro-5-fluoropicolinate] showed a pest or weed control at 70 g/ha of 75 to 84%.

Same assay, conditions: Lolium multiflorum, post-emergence, 504 h; 140 g ai/ha; read-out: Visual Growth Reduction (%) 21 Days After Application LOLSS
In the case of `COC(=O)c1nc(-c2ccc(Br)cc2)c(F)c(N)c1Cl` [Compound 138, Methyl 4-amino-6-(4-bromophenyl)-3-chloro-5-fluoropicolinate], the pest or weed control at 140 g/ha is reported as 85 to 94%.
